Experimental data from patent US20240018161A1, “MODULATORS OF CYSTIC FIBROSIS TRANSMEMBRANE CONDUCTANCE REGULATOR” (VERTEX PHARMACEUTICALS INCORPORATED, priority 2020, published 2024).
Like-named read-outs stand apart in the source and are kept apart here.

Target: CFTR-mediated chloride transport in human intestinal epithelial enteroid cells (Homo sapiens, UniProt P13569)
Assay: Membrane potential dye, Enteroid Assay A
Type: cell-based
Conditions: for EC50: read-out: Ent. A EC50
Procedure, shortened: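 Membrane potential dye (20 μM methyl oxonol, with 30 μM CaCCinh-A01 and 30 μM Chicago Sky Blue) loaded 25 min at room temperature into ROCK-inhibitor-seeded human enteroid cells. Chloride-free stimulation buffer triggered transport, followed by 15 min fluorescence. % Activity relative to 3 μM/3 μM/300 nM triple-combination control.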

[1] = enteroid cells incubated with test compound 18-24 hours, acute 10 μM forskolin and 300 nM N-[2,4-bis(1,1-dimethylethyl)-5-hydroxyphenyl]-1,4-dihydro-4-oxoquinoline-3-carboxamide
[2] = percentage of chloride transport of triple combination control (3 μM N-[(6-amino-2-pyridyl)sulfonyl]-6-(3-fluoro-5-isobutoxy-phenyl)-2-[(4S)-2,2,4-trimethylpyrrolidin-1-yl]pyridine-3-carboxamide based)

Sequence of CFTR-mediated chloride transport in human intestinal epithelial enteroid cells (P13569 with tags, fused parts or gaps DEL508-508): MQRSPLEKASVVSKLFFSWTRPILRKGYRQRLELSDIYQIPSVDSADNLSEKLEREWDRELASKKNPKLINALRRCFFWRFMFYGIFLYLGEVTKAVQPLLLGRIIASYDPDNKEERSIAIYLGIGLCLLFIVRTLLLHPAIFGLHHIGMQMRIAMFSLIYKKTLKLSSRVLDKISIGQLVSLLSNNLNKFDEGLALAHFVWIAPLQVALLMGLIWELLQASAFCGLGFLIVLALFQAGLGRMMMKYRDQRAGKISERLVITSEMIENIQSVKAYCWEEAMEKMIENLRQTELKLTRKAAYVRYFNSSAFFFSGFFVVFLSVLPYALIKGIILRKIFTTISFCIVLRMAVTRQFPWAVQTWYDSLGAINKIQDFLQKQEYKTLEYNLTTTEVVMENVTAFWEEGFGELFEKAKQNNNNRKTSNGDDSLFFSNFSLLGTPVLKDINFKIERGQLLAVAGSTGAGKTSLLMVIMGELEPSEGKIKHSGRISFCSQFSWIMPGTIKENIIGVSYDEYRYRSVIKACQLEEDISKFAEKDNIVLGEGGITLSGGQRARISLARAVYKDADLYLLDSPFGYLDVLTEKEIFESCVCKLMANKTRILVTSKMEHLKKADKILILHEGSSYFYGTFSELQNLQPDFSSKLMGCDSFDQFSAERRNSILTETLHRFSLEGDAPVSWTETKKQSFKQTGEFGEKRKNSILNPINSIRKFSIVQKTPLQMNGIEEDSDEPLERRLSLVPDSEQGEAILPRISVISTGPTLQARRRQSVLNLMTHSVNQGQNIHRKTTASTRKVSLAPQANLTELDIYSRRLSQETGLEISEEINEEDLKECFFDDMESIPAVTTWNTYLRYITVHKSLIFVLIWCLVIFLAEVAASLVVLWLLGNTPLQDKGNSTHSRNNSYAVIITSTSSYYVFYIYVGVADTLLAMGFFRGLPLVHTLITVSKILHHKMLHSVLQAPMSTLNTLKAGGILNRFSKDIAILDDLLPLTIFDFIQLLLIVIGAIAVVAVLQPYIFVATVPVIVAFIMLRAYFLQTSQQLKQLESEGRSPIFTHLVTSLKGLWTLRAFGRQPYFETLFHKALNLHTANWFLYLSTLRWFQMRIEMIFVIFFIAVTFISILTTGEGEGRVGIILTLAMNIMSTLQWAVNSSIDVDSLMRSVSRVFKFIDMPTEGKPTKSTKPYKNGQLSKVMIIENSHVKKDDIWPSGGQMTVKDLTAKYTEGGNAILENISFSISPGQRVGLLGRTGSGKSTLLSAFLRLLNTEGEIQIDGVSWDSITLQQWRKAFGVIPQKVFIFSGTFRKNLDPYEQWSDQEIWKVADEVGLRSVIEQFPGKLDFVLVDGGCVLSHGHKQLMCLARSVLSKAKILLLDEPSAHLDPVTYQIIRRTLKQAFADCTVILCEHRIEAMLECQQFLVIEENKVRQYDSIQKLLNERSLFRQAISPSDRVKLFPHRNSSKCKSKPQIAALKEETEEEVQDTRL

| Ent. A Max Activity (%) (Enteroid Assay A) | EC50 (Enteroid Assay A) [nM] | EC50 [1] [nM] | Structure (SMILES) | Ent. A Max Activity (%) [2] |
| --- | --- | --- | --- | --- |
| +++ (+++ is >600%) | 1000 to 3000 |  | Cc1cccc(C)c1-c1cc2nc(n1)NS(=O)(=O)c1cccc(c1)C(=O)N1CCN(CC3CCOC3)C[C@H](C1)O2 (some centres unmarked) [Compound 30] |  |
| +++ (+++ is >600%) | < 1000 |  | CCCN1CCN2C[C@@H](C1)Oc1cc(-c3c(C)cccc3C)nc(n1)NS(=O)(=O)c1cccc(c1)C2=O [Compound 31] |  |
| +++ (+++ is >600%) | < 1000 |  | CCCCN1CCN2C[C@@H](C1)Oc1cc(-c3c(C)cccc3C)nc(n1)NS(=O)(=O)c1cccc(c1)C2=O [Compound 32] |  |
| +++ (+++ is >600%) | 3000 to 30000 |  | Cc1cccc(C)c1-c1cc2nc(n1)NS(=O)(=O)c1cccc(c1)C(=O)N1CCN(CCCCO)C[C@H](C1)O2 [Compound 33] |  |
| +++ (+++ is >600%) | < 1000 |  | CCOC(=O)C1CC1CN1CCN2C[C@@H](C1)Oc1cc(-c3c(C)cccc3C)nc(n1)NS(=O)(=O)c1cccc(c1)C2=O (some centres unmarked) [Compound 34] |  |
|  |  | < 1000 | Cc1cccc(C)c1-c1cc2nc(n1)NS(=O)(=O)c1cccc(c1)C(=O)N1CCN(CC3CC3)C[C@H](C1)O2 [Compound 35, (16R)-18-(Cyclopropylmethyl)-12-(2,6-dimethylphenyl)-8,8-dioxo-15-oxa-8λ^6-thia-1,9,11,18,22-pentazatetracyclo[14.4.1.13,7.110,14]tricosa-3,5,7(23),10(22),11,13-hexaen-2-one] | +++ (+++ is >60%) |
| +++ (+++ is >600%) | < 1000 |  | Cc1cccc(C)c1-c1cc2nc(n1)NS(=O)(=O)c1cccc(c1)C(=O)N1CCN(C3CCC(F)CC3)C[C@H](C1)O2 (stereo partly drawn) [Compound 40, (16R)-12-(2,6-Dimethylphenyl)-18-(4-fluorocyclohexyl)-15-oxa-8λ^6-thia-1,9,11,18,22-pentaazatetracyclo[14.4.1.13,7.110,14]tricosa-3(23),4,6,10,12,14(22)-hexaene-2,8,8-trione] |  |
| +++ (+++ is >600%) | < 1000 |  | Cc1cccc(C)c1-c1cc2nc(n1)NS(=O)(=O)c1cccc(c1)C(=O)N1CCN(C3CCC4(CC3)COC4)C[C@H](C1)O2 [Compound 41, (16R)-12-(2,6-Dimethylphenyl)-18-{2-oxaspiro[3.5]nonan-7-yl}-15-oxa-8λ^6-thia-1,9,11,18,22-pentaazatetracyclo[14.4.1.13,7.110,14]tricosa-3(23),4,6,10,12,14(22)-hexaene-2,8,8-trione] |  |
|  |  |  | Cc1cccc(C)c1-c1cc2nc(n1)NS(=O)(=O)c1cccc(c1)C(=O)N1CCNCC(C1)O2 (centres unmarked) [Compound 42, 12-(2,6-Dimethylphenyl)-15-oxa-8λ^6-thia-1,9,11,18,22-pentaazatetracyclo[14.4.1.13,7.110,14]tricosa-3(23),4,6,10(22),11,13-hexaene-2,8,8-trione] | ++ (++ is 30-60%) |
|  |  | < 1000 | Cc1cccc(C)c1-c1cc2nc(n1)NS(=O)(=O)c1cccc(c1)C(=O)N1CCN(CC(C)C)CC(C1)O2 (centres unmarked) [Compound 44, 12-(2,6-Dimethylphenyl)-18-isobutyl-8,8-dioxo-15-oxa-8λ^6-thia-1,9,11,18,22-pentazatetracyclo[14.4.1.13,7.110,14]tricosa-3,5,7(23),10(22),11,13-hexaen-2-one] | +++ (+++ is >60%) |
|  |  | < 1000 | Cc1cccc(C)c1-c1cc2nc(n1)NS(=O)(=O)c1cccc(c1)C(=O)N1CCN(CCC(C)(C)C)CC(C1)O2 (centres unmarked) [Compound 45] | +++ (+++ is >60%) |
| +++ (+++ is >600%) | < 1000 |  | Cc1cccc(C)c1-c1cc2nc(n1)NS(=O)(=O)c1cccc(c1)C(=O)N1CCN(C3CCC(F)(F)CC3)CC(C1)O2 (centres unmarked) [Compound 46] |  |
|  |  | 3000 to 30000 | CNc1ccc(CN2CCN3CC(C2)Oc2cc(-c4c(C)cccc4C)nc(n2)NS(=O)(=O)c2cccc(c2)C3=O)cn1 (centres unmarked) [Compound 47] | +++ (+++ is >60%) |
|  |  | 3000 to 30000 | Cc1cccc(C)c1-c1cc2nc(n1)NS(=O)(=O)c1cccc(c1)C(=O)N1CCN(Cc3ccn[nH]3)CC(C1)O2 (centres unmarked) [Compound 48] | ++ (++ is 30-60%) |
|  |  | 3000 to 30000 | Cc1cccc(C)c1-c1cc2nc(n1)NS(=O)(=O)c1cccc(c1)C(=O)N1CCN(Cc3ccn(C)n3)CC(C1)O2 (centres unmarked) [Compound 49] | +++ (+++ is >60%) |
|  |  |  | Cc1cccc(C)c1-c1cc2nc(n1)NS(=O)(=O)c1cccc(c1)C(=O)N1CCN(Cc3cncn3C)CC(C1)O2 (centres unmarked) [Compound 51] | + (+ is <300%) |
|  |  | 1000 to 3000 | Cc1cccc(C)c1-c1cc2nc(n1)NS(=O)(=O)c1cccc(c1)C(=O)N1CCN(Cc3nccs3)CC(C1)O2 (centres unmarked) [Compound 52] | ++ (++ is 30-60%) |
|  |  | < 1000 | Cc1cccc(C)c1-c1cc2nc(n1)NS(=O)(=O)c1cccc(c1)C(=O)N1CCN(CC3CCCCC3)CC(C1)O2 (centres unmarked) [Compound 53] | ++ (++ is 30-60%) |
|  |  | < 1000 | Cc1cccc(C)c1-c1cc2nc(n1)NS(=O)(=O)c1cccc(c1)C(=O)N1CCN(Cc3ccccc3C#N)CC(C1)O2 (centres unmarked) [Compound 54] | +++ (+++ is >60%) |
|  |  | 3000 to 30000 | Cc1cccc(C)c1-c1cc2nc(n1)NS(=O)(=O)c1cccc(c1)C(=O)N1CCN(CC3CCOCC3)CC(C1)O2 (centres unmarked) [Compound 55] | +++ (+++ is >60%) |
|  |  | 3000 to 30000 | Cc1cccc(C)c1-c1cc2nc(n1)NS(=O)(=O)c1cccc(c1)C(=O)N1CCN(CC3(C)COC3)CC(C1)O2 (centres unmarked) [Compound 56] | ++ (++ is 30-60%) |
|  |  | < 1000 | Cc1cccc(C)c1-c1cc2nc(n1)NS(=O)(=O)c1cccc(c1)C(=O)N1CCN(Cc3ccccc3O)CC(C1)O2 (centres unmarked) [Compound 57] | +++ (+++ is >60%) |
|  |  | < 1000 | Cc1cccc(C)c1-c1cc2nc(n1)NS(=O)(=O)c1cccc(c1)C(=O)N1CCN(CCC(C)C)CC(C1)O2 (centres unmarked) [Compound 58] | +++ (+++ is >60%) |
|  |  | < 1000 | Cc1cccc(C)c1-c1cc2nc(n1)NS(=O)(=O)c1cccc(c1)C(=O)N1CCN(CC3CC4C=CC3C4)CC(C1)O2 (centres unmarked) [Compound 59] | +++ (+++ is >60%) |
|  |  | 3000 to 30000 | Cc1cccc(C)c1-c1cc2nc(n1)NS(=O)(=O)c1cccc(c1)C(=O)N1CCN(CCC3CCOCC3)CC(C1)O2 (centres unmarked) [Compound 60] | +++ (+++ is >60%) |
|  |  | < 1000 | Cc1cccc(C)c1-c1cc2nc(n1)NS(=O)(=O)c1cccc(c1)C(=O)N1CCN(Cc3sccc3Oc3ccccc3)CC(C1)O2 (centres unmarked) [Compound 61] | +++ (+++ is >60%) |
|  |  | < 1000 | Cc1cccc(C)c1-c1cc2nc(n1)NS(=O)(=O)c1cccc(c1)C(=O)N1CCN(CCC(C)CC(C)(C)C)CC(C1)O2 (centres unmarked) [Compound 62] | +++ (+++ is >60%) |
|  |  | 3000 to 30000 | Cc1cccc(C)c1-c1cc2nc(n1)NS(=O)(=O)c1cccc(c1)C(=O)N1CCN(C)CC(C1)O2 (centres unmarked) [Compound 63] | +++ (+++ is >60%) |
|  |  | 1000 to 3000 | Cc1cccc(C)c1-c1cc2nc(n1)NS(=O)(=O)c1cccc(c1)C(=O)N1CCN(Cc3ccccn3)CC(C1)O2 (centres unmarked) [Compound 64, 12-(2,6-Dimethylphenyl)-18-[(pyridin-2-yl)methyl]-15-oxa-8λ^6-thia-1,9,11,18,22-pentaazatetracyclo[14.4.1.13,7.110,14]tricosa-3(23),4,6,10(22),11,13-hexaene-2,8,8-trione] | ++ (++ is 30-60%) |
